Assay: Human HepG2 cell viability assay in 384 well format
Assay type: toxicity, cell-based
Set-up: dose 125 nL, time 70.5 hour; cytotoxicity at 70.5 h: concentration not given beside the values
Settings: HepG2 cells, read-out: Inhibition

| SMILES | cytotoxicity at 70.5 h |
| --- | --- |
| COCCn1ccc(NC(=O)Nc2cccc(C#N)c2)n1 | -9.39% |
| CC(C)COC1CCN(C(=O)c2cc3ccccc3c(=O)[nH]2)CC1 | -4.65% |
| COCCn1ccc2cc(NC(=O)COC)ccc21 | -3.46% |
| Cc1nc(CNC(=O)NCc2ccc(OCC3CC3)nc2)cs1 | -5.23% |
| COCCn1ccc(NC(=O)Nc2ccc(C)cc2)n1 | -5.81% |
| COc1cccc(S(=O)(=O)NC(=O)c2c(C)noc2C(C)C)c1 | -3.75% |
| CCc1nccn1C1CCCN(C(=O)c2cc[nH]n2)C1 (centres undefined) | -1.71% |
| CCc1nccn1C1CCCN(C(=O)c2cnc[nH]2)C1 (centres undefined) | -3.68% |
| CCc1nccn1C1CCCN(C(=O)c2cc(C3CC3)on2)C1 (centres undefined) | -6.97% |
| CCc1csc(C2CCCN(C(=O)c3ccc(OC)nc3)C2)n1 (centres undefined) | -1.94% |
| CCc1csc(C2CCCN(C(=O)CCn3cc(C)cn3)C2)n1 (centres undefined) | 17.5% |
| CC(NC(=O)C(C)(C)C#N)c1ccc(OCC2CC2)c(F)c1 (centres undefined) | -6.52% |
| COc1ccc(S(=O)(=O)NC(=O)c2c(C)noc2C(C)C)cc1OC | -2.97% |
| CC(NC(=O)Cc1ccon1)c1ccc(OCC2CC2)c(F)c1 (centres undefined) | -7.52% |
| CC(NC(=O)c1csnn1)c1ccc(OCC2CC2)c(F)c1 (centres undefined) | 14.5% |
| Cc1cc(CC(=O)NC(C)c2ccc(OCC3CC3)c(F)c2)n[nH]1 (centres undefined) | -7.64% |
| CC(NC(=O)Cn1ccnc1)c1ccc(OCC2CC2)c(F)c1 (centres undefined) | 0.552% |
| CCc1nccn1C1CCCN(C(=O)c2cncn2-c2ccccc2)C1 (centres undefined) | -6.28% |
| CCc1csc(C2CCCN(C(=O)c3ccc4c(c3)OCO4)C2)n1 (centres undefined) | 13.2% |
| CCc1nccn1C1CCCN(C(=O)c2ccnc(C)n2)C1 (centres undefined) | -7.48% |
| CC(C(=O)N(C)C)N1CCCN(C(=O)Oc2ccccc2)CC1 (centres undefined) | -9.71% |
| COCc1csc(NC(=O)N2CCC(Cc3cnn(C)c3)C2)n1 (centres undefined) | -4.37% |
| CCNC(=O)CN1CCN(c2cc(C)nc(-c3ccncc3)n2)CC1 | -0.76% |
| CC(C)CNC(=O)CNC(=O)NC(C)COc1ccccc1F (centres undefined) | -13.5% |

| SMILES | cytotoxicity at 70.5 h |
| --- | --- |
| COc1ccc2c(c1)CN(CC(=O)NC1CCCC1)CC2 | -12.6% |
| CC(C)(C)c1n[nH]c(C2CN(C(=O)c3cc(C4CC4)[nH]n3)CCO2)n1 (centres undefined) | -1.31% |
| CC(C)(C)c1n[nH]c(C2CN(C(=O)c3cnc[nH]3)CCO2)n1 (centres undefined) | -7.66% |
| Cn1cc(CC2CCN(C(=O)NCc3csc(C4CC4)n3)C2)cn1 (centres undefined) | 0.703% |
| CC(C)c1n[nH]c(C2CN(C(=O)c3cc(C4CC4)on3)CCO2)n1 (centres undefined) | -11.3% |
| O=C(NCc1nnc2n1CCC2)NCC1(c2cccc(F)c2)CC1 | -5.65% |
| Cc1cnn(CC2CCCN2C(=O)CCc2ccco2)c1 (centres undefined) | -6.55% |
| O=C(NCCc1nnc2n1CCC2)NCC1(c2ccccc2)CC1 | 14% |
| Cc1nc(C)c(C(=O)N2CCCC(n3ccnc3C)C2)s1 (centres undefined) | -3.06% |
| COCCCNC(=O)c1ccccc1S(C)(=O)=O | -13.3% |
| Cc1cnn(CC2CCCN2C(=O)CCc2c(C)noc2C)c1 (centres undefined) | 12.1% |
| COc1ncccc1C(=O)N1CCCC(n2ccnc2C)C1 (centres undefined) | -10.3% |
| CCOc1nnc(CN(C)C2CCCN(c3ccc(C)nn3)C2)s1 (centres undefined) | -3.1% |
| CSc1nsc(NC(=O)N2CCc3ccccc3C2)n1 | -4.59% |
| Cc1ncc(CN(C)C2CCCN(c3cccnn3)C2)s1 (centres undefined) | -2.85% |
| CN(C)c1ncc(CNS(=O)(=O)c2cc(F)ccc2Cl)n1C | -9.08% |
| CCCN1C(=O)C2(CCCCC2)NC1c1c[nH]nc1-c1cccnc1 (centres undefined) | 12.8% |
| CC(C(=O)Nc1ncccn1)N1CCc2[nH]nc(C(F)(F)F)c2C1 (centres undefined) | -6.74% |
| CC(c1ccccc1)N1CCC(NC(=O)CCc2ccsc2)CC1 (centres undefined) | -7.82% |
| COc1ccc(-n2ccc(CNCc3ccc(OC)c(O)c3)n2)cc1 | 2.11% |
| NS(=O)(=O)CCNC(=O)c1cc2cccc(F)c2o1 | 18% |
| CN(C)c1ncc(CNS(=O)(=O)c2cccc3ccccc23)n1C | -11.7% |
| COc1nc(C)ccc1CNC(=O)NC(C)Cc1c(C)nn(C)c1C (centres undefined) | -9.98% |
| CCC1(c2ccc(NS(=O)(=O)c3ccc(Cl)s3)cc2)CCC(=O)NC1=O (centres undefined) | -11.2% |

| SMILES | cytotoxicity at 70.5 h |
| --- | --- |
| CC(C)CN1C(=O)C2(CCCC2)NC1c1c[nH]nc1-c1cccnc1 (centres undefined) | -3.57% |
| CC(=O)NCC1CCN(c2ccnc3ccc(Br)cc23)CC1 | -2.63% |
| Cc1ccc(-n2nnnc2C2(NCc3ccco3)CCCC2)cc1 | -13.6% |
| CCN(CCCNC(=O)c1cc2cccc(F)c2o1)S(C)(=O)=O | -8.74% |
| COc1ccccc1CC(C)(C)NC(=O)CN(C)C(C)C | -11.5% |
| O=C(CC1CCCO1)NCCc1ccccc1Br (centres undefined) | -2.65% |
| CCC(CNS(N)(=O)=O)Oc1ccccc1F (centres undefined) | -7.45% |
| CN1C(=O)CC(N(C)Cc2nc3ccccc3c(=O)[nH]2)C1=O (centres undefined) | 23.4% |
| CC(C)CCN1C(=O)CC(N(C)Cc2nc3ccccc3c(=O)[nH]2)C1=O (centres undefined) | -6.43% |
| CC(NC(=O)c1cccnc1N(C)C)c1ccccc1Br (centres undefined) | 20.1% |
| CN(C)c1ccc(NC(=O)NCc2cccs2)cn1 | -6.16% |
| CN(C)c1ccc(NC(=O)NCc2ccc(Cl)s2)cn1 | -7.08% |
| CCC(NCc1ccccc1Cl)c1ccccc1OCC(=O)NC (centres undefined) | -3.07% |
| Cc1nc2sccn2c1CNc1ccc(C(=O)O)cc1 | -7.07% |
| Cc1nc2sccn2c1CNc1cc(C(=O)O)ccc1F | -7.72% |
| O=C(CNC(=O)C1CCCC1)NCC(O)c1ccc2ccccc2c1 (centres undefined) | -0.471% |
| CC(C)(C)CC(=O)NCC(=O)NCC(O)c1ccc2ccccc2c1 (centres undefined) | 4.11% |
| CC(C)n1ccc(=O)nc1SC1CCN(c2ccccc2F)C1=O (centres undefined) | -1.73% |
| O=C1OCCN1c1cccc(CNCc2cc(F)ccc2F)c1 | 22.6% |
| CS(=O)(=O)NC(=O)CCc1cccc(OC2CCCC2)c1 | -5.51% |
| COc1cc(F)c(C(C)NC(=O)c2cccnc2C)cc1OC (centres undefined) | 2.35% |
| COC(=O)CCC(=O)Nc1ccc(Br)c(C)n1 | -0.954% |
| CCc1nc(CC(=O)N2CCC(C(=O)N3CCCCC3)CC2)cs1 | -4.54% |
| CC(C)CNC(=O)CNC(=O)NCC(O)c1ccc2ccccc2c1 (centres undefined) | -3.3% |

| SMILES | cytotoxicity at 70.5 h |
| --- | --- |
| O=C(O)CN1CCC(c2ccccc2)CC1 | -3.19% |
| CNC(=O)C(NC(=O)CCc1cccc(OC2CCCC2)c1)C(C)C (centres undefined) | 6.19% |
| CCn1cc(S(=O)(=O)N2CCC(C)Sc3ccccc32)cn1 (centres undefined) | -1.33% |
| CCn1cc(S(=O)(=O)N2CCCSc3ccccc32)cn1 | -7.44% |
| CCC(=O)NC1CCCN(Cn2nc(C(C)(C)C)ccc2=O)C1 (centres undefined) | -4.43% |
| Cc1ccc(N(C)Cc2nnnn2C2CC2)c(C)c1 | -5.96% |
| CC(C)c1ccc(CNC(C)c2ccc(S(=O)(=O)N(C)C)cc2)cc1 (centres undefined) | -2.78% |
| CCOCC1CCN(C(=O)c2sc(C)cc2OC(F)F)CC1 | -5.96% |
| COc1ccccc1C1(CNCc2cccc(O)c2)CCOCC1 | -2.11% |
| O=C(c1ccncc1)N(CCO)Cc1cc(Br)ccc1F | -10.4% |
| COc1ccccc1C1(CNCc2cccc(C#N)c2)CCOCC1 | -9.16% |
| Cc1cc(C)cc(OCCCn2nc3ccccn3c2=O)c1 | -13.4% |
| O=C(NCCC(=O)N1CCCC1)c1cccnc1 | 17.4% |
| Cc1ccc(OCCSCCn2nc3ccccn3c2=O)cc1 | -10.4% |
| COc1cccc(CNCCNS(=O)(=O)Cc2ccccc2)c1 | -6.4% |
| COCCC(Cc1cccc(Br)c1)C(N)=O (centres undefined) | -7.63% |
| CC(C)CC(Cc1cccc(Br)c1)C(=O)O (centres undefined) | 22.2% |
| CCCNC(=O)CNc1ccccc1OCCC(=O)OC | -7.23% |
| CC1CCC(NC(=O)NCC(C)(C)CCS(C)(=O)=O)CC1 (centres undefined) | -4.98% |
| CNC(=O)CN(C(=O)c1ccc(SC)o1)c1cccc(F)c1 | -0.365% |
| CCCN1CCCN(S(=O)(=O)c2cnc3onc(C)c3c2)CC1 | 2.21% |
| O=c1[nH]c2csnc2c(=O)n1Cc1ccc(Br)cc1 | -10.2% |
| CN(C)c1nc(CNC(=O)N[C@H](CO)c2ccccc2)cs1 | 30.7% |
| CCN(Cc1ccc(Cl)c(Cl)c1)C(=O)CCn1cncn1 | -10.7% |

| SMILES | cytotoxicity at 70.5 h |
| --- | --- |
| Cc1cccc2nc(CNCc3cccc4c3OCCCO4)cn12 | -0.513% |
| Cc1noc(C)c1Cc1nc(N(C)C)no1 | -12.3% |
| CC(C)OCCSCCn1nc2ccccn2c1=O | -12.9% |
| Cc1cc(C(=O)N2CCCN(c3nccs3)CC2)c(C)n1C(C)C | 29.5% |
| COCCN(c1ccncc1)S(=O)(=O)c1cc(C)c(F)cc1F | 15.9% |
| CC(C)OCCN(C)CC(c1cccs1)N1CCOCC1 (centres undefined) | 29.2% |
| N#Cc1cc(F)c(NCCc2ccc(S(N)(=O)=O)cc2)c(F)c1 | -2.35% |
| CN(C)c1ncc(CNC(=O)Nc2ccccc2F)n1C | -1.14% |
| CC(O)(CNc1ccccn1)c1ccccc1 (centres undefined) | 19.5% |
| COc1cccc(C(=O)NC(C)CCN2CCOCC2)c1F (centres undefined) | -5.81% |
| CCS(=O)(=O)c1ccc(CNc2c(Cl)cccc2C#N)cc1 | -1.09% |
| CN(C1CCCC1)C(C)(C)C(=O)NCCNC(N)=O | -0.603% |
| O=C(CCc1ccccc1)N1CCCCC1C1OCCO1 (centres undefined) | -3.98% |
| COc1cccc(CSCC(=O)NCc2cccnc2)c1 | -3.51% |
| CC1CN(C(=O)NCCn2ccnc2)CCO1 (centres undefined) | -1.49% |
| O=C(CCN1CCSCC1c1ccccc1)N1CCOCC1 (centres undefined) | 7.46% |
| Cc1nccc(CNS(=O)(=O)N(C)Cc2ccc(Cl)cc2)n1 | 8.78% |
| O=C1CC(NS(=O)(=O)N2CCOCC2)CN1Cc1ccccc1 (centres undefined) | -5.68% |
| CN(C)C(=O)c1cccc(NC(=O)N2CCCC(C(F)(F)F)C2)c1 (centres undefined) | -8.44% |
| O=C(CN1CCCNC1=O)Nc1ccccc1SC(F)(F)F | 21.5% |
| CN(C)C(C)(C)CNCc1cn(C)nc1-c1cccnc1 | 17.8% |
| COc1ccc(CNc2c(C)nn(C(C)C)c2C)cc1OC | -2.06% |
| CC(NCc1cccc(C#N)c1)c1ccccn1 (centres undefined) | -6.12% |

Source: ChEMBL document CHEMBL3507680, “University of Dundee, Gates Library screen for HepG2 cell viability”
